Test system: SUDHL6 cells
Test: Immunofluorescence of MDA (mAb 1F83) on cells
Format: cell-based
Settings: 10 μM IKE for 6 hours vs DMSO
Description: SUDHL-6 cells were treated with IKE. The cells were harvested by centrifugation and washed with PBS once. The cells were resuspended in PBS, fixed by adding equal volume of 4% paraformaldehyde (PFA), and incubated at room temperature for 15 min. The cells were washed with PBS/0.1% Tween 20 (PBST) twice, resuspended in 10% goat serum (ThermoFisher 50197Z) for 1 h. The cells were incubated with mouse mAb 1F83, which specifically recognizes malondialdehyde (MDA)-lysine adduct 4-methyl-1,4-dihydropyridine-3,5-dicarbaldehyde (MDHDC) (Yamada et al. 2001, Hyvarinen et al. 2014) (1:100 dilution) overnight at 4° C. The cells were washed with PBS three times by centrifugation. The cells were incubated with goat anti-mouse IgG H&L (Alexa Fluor 647) (Abcam ab150115) (1:1000) at room temperature for 1 h. The cells were washed with PBST twice by centrifugation, then resuspended in PBS in 24-well plate with poly-lysine-(Sigma Aldrich P4832)-coated cover slips and centrifuged at 1,000×g for 10 min. […] When applicable, line-scan analysis was performed on representative confocal microscopy images using Zeiss LSM software to qualitatively visualize fluorescence overlap. The intensity above threshold of the fluorescent signal of the bound antibodies was analyzed using NIH ImageJ software. Data were expressed as fold change compared with the vehicle.

CC(C)Oc1ccc(C(=O)Cn2ccnc2)cc1-n1c(CN2CCN(C(=O)COc3ccc(Cl)cc3)CC2)nc2ccccc2c1=O [IKE, Imidazole ketone erastin] was tested, and the “MDA immunofluorescence intensity increase” value was 3.4 fold.

— patent US20210267978A1, “NANOPARTICLE FORMULATIONS OF IKE AND METHODS OF USE THEREOF” (The Trustees of Columbia University in the City of New York, priority 2018, published 2021)
